The test can be described thus: Binding affinity to BTN3A1 in human PBMC assessed as stimulation of Vgamma9 Vdelta2 T cells incubated for 3 days and measured after 11 days post compound removal by flow cytometry.

As to `COC(=O)CNP(=O)(CC/C=C(\C)CO)Oc1ccccc1` (stereo not given), the concentration giving a half-maximal response (EC50) (as a rule, the concentration needed to bring the measured effect to its halfway point) was 1.5 nM. The figure for `COC(=O)CNP(=O)(CC/C=C(\C)CO)Oc1ccc2ccccc2c1` (stereo not given) is 0.58 nM. The figure for `C/C(=C\CCP(=O)(NCC(=O)OC(C)C)Oc1cccc2ccccc12)CO` (stereo not given) is 0.34 nM; for `C/C(=C\CCP(=O)(NCC(=O)OC(C)C)Oc1ccc2ccccc2c1)CO` (stereo not given) it is 0.82 nM; for `CCOC(=O)CNP(=O)(CC/C=C(\C)CO)Oc1ccc2ccccc2c1` (stereo not given) it is 0.53 nM. In the case of `COP(=O)(CC/C=C(\C)CO)OC` it was greater than 10000 nM; in that of `COC(=O)CNP(=O)(CC/C=C(\C)CO)Oc1cccc2ccccc12` (stereo not given), 0.44 nM; in that of `CCOC(=O)CNP(=O)(CC/C=C(\C)CO)Oc1ccccc1` (stereo not given), 0.36 nM. With `CCOC(=O)CNP(=O)(CC/C=C(\C)CO)Oc1cccc2ccccc12` (stereo not given), the EC50 was determined as 0.36 nM.

For the compound `C/C(=C\CCP(=O)(NCC(=O)OC(C)C)Oc1ccccc1)CO` (stereo not given), the EC50 worked out at 1.1 nM.

The values are drawn from BindingDB's records for doi:10.1021/acs.jmedchem.8b00655 (University of Iowa, 2018).
